These results are taken from the METLIN SMRT retention time set (Domingo-Almenara et al. 2019).

A short description of the series: gradient 5% acetonitrile 3 min, to 50% in 2 min, to 85% in 15 min, held 3 min, 100 µL/min. As to conditions: column: Zorbax Extend-C18 2.1 x 50 mm; eluents: water / acetonitrile, 0.1% formic acid. In short, it runs like this:
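Over 3 months, pure standards in mixtures of ~100 molecules were run by HPLC coupled to a quadrupole time-of-flight mass spectrometer in positive and negative ionization mode. The column was a Zorbax Extend-C18 (2.1 × 50 mm, 1.8 μm) at 100 μL/min, eluted with water and acetonitrile each holding 0.1% formic acid, with 40 μL dead and 900 μL dwell volumes. Retention time was determined from adduct peaks chosen by software and checked manually.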
The compound `COc1ccc(OC)c(CNC(=O)c2cn3cc(C)ccc3n2)c1` yielded an RP-LC retention time of 694 s. The compound `Cc1scc2nc(C3CCC3)nc(N3CCC(C(=O)N4CCN(c5ccc(F)cc5)CC4)CC3)c12` had an RP-LC retention time of 810 s. In turn, `CC1CCN(C(=O)C2N(C(C)C)C(=O)C23CCCC3)CC1` (stereo not given) displayed an RP-LC retention time of 737 s. Next, `CCOC(=O)c1ccccc1NC(=O)N(Cc1cc(=O)[nH]c2ccccc12)CC(C)C`: 1090 s; `COc1cc(NS(=O)(=O)c2cc(-c3nc(C)cs3)n(CC(=O)N3CCCC3)c2)cc(OC)c1`: 877 s; `CCOC(=O)c1ccc(N2C=C(C#N)S(=O)(=O)c3c(F)cccc32)cc1`: 930 s. In the case of `CCOc1ccccc1NC(=O)c1cn(C)c2ncccc12`, the RP-LC retention time was determined as 927 s. For the compound `Cc1ccccc1-c1noc(Cn2ccnc2C)n1`, the RP-LC retention time was 622 s. In turn, `Cc1cc(C(=O)Nc2c3c(nn2C)CCC3)no1` displayed an RP-LC retention time of 611 s. The compound `O=C(C1=CN(c2ccc(Cl)cc2)c2cc(Cl)ccc2S1(=O)=O)N1CCOCC1` showed an RP-LC retention time of 875 s. For the compound `COCCN1C(=O)[C@H]2CN(Cc3ccc(F)cc3Cl)C[C@H]2C1=O`, the RP-LC retention time came out at 693 s. With `CCOc1ccccc1NC(=O)N(Cc1cccs1)C1CCN(CC)CC1`, the RP-LC retention time came to 698 s. With `Cc1ncc2c(n1)C[C@@H]1CC[C@H]2N1S(=O)(=O)c1ccccc1C`, the RP-LC retention time stood at 750 s.

Consider `Cc1nnc([C@@H]2CC(F)(F)CN2C(=O)c2ccc3c(c2)OCO3)o1`, for which the RP-LC retention time came to 703 s. `CCc1ccccc1NC(=O)c1c(O)c2cccnc2n(-c2ccccc2)c1=O` registered an RP-LC retention time of 1290 s.

Turning to `CC(NC(=O)c1csc(C(=O)NC2CCCC2)n1)c1ccc(F)cc1` (stereo not given), the RP-LC retention time was determined as 931 s. `CCOC(=O)C(C)Sc1ccc2nnc(CCNC(=O)c3ccc(OC)cc3)n2n1` (stereo not given): the RP-LC retention time stood at 647 s. The compound `Cn1c(CNC(=O)C2CCC2)nc2c1CN(S(=O)(=O)Cc1ccc(Cl)cc1)CC2` returned an RP-LC retention time of 586 s. For the compound `CCN(CC)C(=O)c1ccc2c(c1)N(CC(=O)NC)C(=O)C1CCCCN21` (stereo not given), the RP-LC retention time was 684 s. Consider `COc1ccccc1-c1noc(Cn2ncn3nc(-c4ccc(C)cc4C)cc3c2=O)n1`, for which the RP-LC retention time was 1130 s. `CCN(CCNC(=O)CCc1cc2cc(C)ccc2[nH]c1=O)Cc1ccccc1` gave an RP-LC retention time of 648 s. In the case of `Cc1cc2c(C)c(C(=O)N3CCCCC3)oc2c(S(=O)(=O)N2CCN(c3ncccn3)CC2)c1C`, the RP-LC retention time was found to be 1100 s. Then `c1ccc2[nH]c(-c3ccncc3)nc2c1`, with 624 s.

Compound `Cc1ccc(CC(=O)Nc2cc(-c3ccc(C)s3)no2)cc1` yielded an RP-LC retention time of 1050 s.

Take `O=C(Nc1nc2c(s1)CN(C(=O)c1cc(-c3ccc(F)cc3)n[nH]1)CC2)c1ccco1`: the RP-LC retention time was determined as 717 s. `COc1ccc(OC)c(NC(=O)Cc2cccn2-c2ccc(Cl)cc2)c1`: the RP-LC retention time is 1080 s. For the compound `CC1=C(c2ccccc2)S(=O)(=O)N=C1N1CCCN(C(=O)c2ccccc2F)CC1`, the RP-LC retention time turned out to be 802 s. Regarding `CCn1c(N2CCCC(C(=O)NCC3CCN(Cc4cccc(F)c4)CC3)C2)cc(=O)n(C)c1=O` (stereo not given), the RP-LC retention time was found to be 635 s. Compound `Cn1nc(C2CCN(C(=O)C3CCC3)CC2)c2c1CCOC2` had an RP-LC retention time of 659 s. `O=C(Cc1ccc(NS(=O)(=O)c2ccc3c(c2)CCCC3)cc1)NC1CC1` gave an RP-LC retention time of 766 s. Then `COc1ccc(C(=O)N2CCC3(CC2)N=C(c2ccc(Br)cc2)NO3)c(OC)c1`, with 886 s. Next, `O=C(NCc1ccccc1F)C1CC(=O)N(c2ccc3c(c2)CCN3C(=O)C2CC2)C1` (stereo not given): 745 s; `CCOC(=O)Cc1csc(NC(=O)c2cc(=O)c(OCc3ccccc3)c[nH]2)n1`: 797 s; `Cc1nn2c(CNC(=O)Cc3ccsc3)c(-c3ccccc3)nc2s1`: 866 s.

In turn, `Nc1nc(Nc2ccccc2)nc2c1ncn2[C@@H]1O[C@H](CO)[C@H](O)C1O` (stereo not given in full) displayed an RP-LC retention time of 579 s. In turn, `CCc1nn2c(CNC(=O)c3ccc(Br)cc3)c(-c3ccccc3)nc2s1` displayed an RP-LC retention time of 1010 s. Next, `O=C(c1ccc2ccccc2n1)N1CCN(c2cc(-c3cccs3)[nH]n2)CC1`: 752 s; `COCC1CN(S(=O)(=O)Cc2ccccc2F)CC12CCNCC2` (stereo not given): 575 s; `CNC(=O)C1CCCN(c2nc3ncn(CC(=O)Nc4cc(F)ccc4F)c(=O)c3s2)C1` (stereo not given): 641 s. With `CCS(=O)(=O)N1CCC(N2C(=O)[C@H](OCCOC)[C@@H]2c2ccncc2)CC1`, the RP-LC retention time worked out at 561 s. Regarding `Cn1cc(CCN2CCC(C(=O)N3CCN(c4ccccc4)CC3)CC2)c2cccnc21`, the RP-LC retention time is 617 s. For the compound `c1cc(-c2nc(-c3ccc4c(c3)nnn4CCN3CCCCC3)no2)ccn1`, the RP-LC retention time stood at 599 s. Next, `CCn1c(C(=O)N2CCCC(C(=O)N3CCN(c4cccc(C)c4C)CC3)C2)cc2sccc21` (stereo not given): 1140 s. `NC(N)=NC(=O)c1nc(Cl)c(N2CCCCCC2)nc1N` had an RP-LC retention time of 758 s. `O=C(NCc1cccnc1)C1CCN(c2cc(N3CCSCC3)ncn2)CC1`: the RP-LC retention time came to 553 s. Next, `CCS(=O)(=O)N1CCCc2cc(C(=O)NC)ccc21`: 657 s; `O=S(=O)(c1cccc2nsnc12)N1CCC(Cc2nc(-c3cccnc3)n[nH]2)C1` (stereo not given): 633 s; `O=C(CCNc1cnc2cnccn12)NCc1cccc(C(F)(F)F)c1`: 608 s.

On to `O=c1c2ccccc2ncn1Cc1noc(-c2cccc(Br)c2)n1`, for which the RP-LC retention time turned out to be 914 s. Then `CCN(CC)C(=O)N1CCC(c2noc(COc3ccc(F)cc3)n2)C1` (stereo not given), with 553 s; and `O=C(Nc1ccccc1Cl)NC1CCCN(c2cc(-c3ccncc3)[nH]n2)C1` (stereo not given), with 582 s. Next, `Cc1ccccc1OCc1nc(CCN(C)C(=O)Cc2cccs2)no1`: 924 s; `CCC(C)CC(=O)N1CCCN(C2=NS(=O)(=O)C(c3ccc(C(C)C)cc3)=C2C)CC1` (stereo not given): 1000 s; `Cc1ccc(C)c(NC(=O)N2CCN(c3nc(C)cc(N(C)C)n3)CC2)c1`: 572 s. Consider `O=C(NCCc1ccccc1)c1ccc2c(c1)NC(=O)C1CCCCN21` (stereo not given), for which the RP-LC retention time came out at 806 s. In the case of `Cc1cccc(OCC(=O)NC2(c3nc(C)no3)CCCCC2)c1`, the RP-LC retention time is 951 s.

`CN(C)c1ccc(-c2nc3ncccn3c2Nc2ccccc2)cc1` showed an RP-LC retention time of 687 s. For the compound `CC(C)COc1cc(=O)n2c(c1C(=O)N1CCOCC1)CCCCC2`, the RP-LC retention time amounted to 656 s. `CC(C)n1c(N2CCCN(C(=O)c3cccs3)CC2)cc(=O)n(C(C)C)c1=O` returned an RP-LC retention time of 794 s. `O=C(NCc1ccccc1)C1CC(=O)N(c2n[nH]c3cccc(F)c23)C1` (stereo not given) had an RP-LC retention time of 684 s. Take `CC(C)OC(=O)Cn1nc2c(-c3nc(-c4ccc(Cl)cc4)no3)cccn2c1=O`: the RP-LC retention time turned out to be 1040 s. `CC(C)CNc1nnc(-c2nc(C3CC3)no2)c2ccccc12` registered an RP-LC retention time of 657 s. Take `Cc1ccc(C)c(N2CCN(c3ccnc(SCC(=O)Nc4ccc(C)c(F)c4)n3)CC2)c1`: the RP-LC retention time turned out to be 955 s. For `O=C(Cc1ccccc1)NCc1nc(-c2ccc(-c3csc(C4CC4)n3)cc2)no1`, the RP-LC retention time stood at 1040 s. Consider `COc1ccc2cc(C(=O)N3CCN(c4cc(=O)n(C(C)C)c(=O)n4C(C)C)CC3)[nH]c2c1`, for which the RP-LC retention time is 909 s. As to `Cc1cnc(-c2ccccc2)n1C1CN(S(=O)(=O)c2cccs2)C1`, the RP-LC retention time turned out to be 653 s. In turn, `COc1ccc(CNC(=O)c2csc(-c3cn(C)c4ncccc34)n2)c(OC)c1` registered an RP-LC retention time of 924 s. Compound `CCNC(=O)c1cn(-c2ccc(-c3nc(C(C)(C)C)no3)cn2)cn1` came in with an RP-LC retention time of 858 s. With `CCn1cnc(S(=O)(=O)N2CCC(C(=O)NCc3ccccc3Cl)CC2)c1`, the RP-LC retention time was 720 s. Then `CCOC(=O)c1noc2ncnc(N3CCN(c4ccccc4)CC3)c12`, with 968 s; and `COc1cccc(-n2nnc(C(=O)O)c2C(F)(F)F)c1`, with 752 s; and `CC(C)S(=O)(=O)c1ccc(CC(=O)N2CCCC(c3nnc(C(F)(F)F)o3)C2)cc1` (stereo not given), with 750 s. For `Cc1ccsc1C(=O)N1CCc2cc(-c3ccno3)ccc21`, the RP-LC retention time was found to be 924 s. Turning to `Cn1cnc(S(=O)(=O)N2CCC(C(=O)NCc3cccs3)CC2)c1`, the RP-LC retention time turned out to be 640 s. `Cc1noc(C)c1S(=O)(=O)N1CCC(C(=O)NCc2csc(-c3ccccc3)n2)CC1` showed an RP-LC retention time of 870 s.

Take `CCc1ccc2c(c1)cc(S(=O)(=O)c1ccccc1)c(=O)n2CC(=O)NC(C)C`: the RP-LC retention time was found to be 882 s. Then `COc1ccc(-c2nc3ncccn3c2Nc2ccc(C)cc2C)cc1`, with 800 s; and `Cc1cccc(C)c1Nc1c(-c2ccc(Cl)cc2)nc2cnccn12`, with 1030 s. `O=S(=O)(c1ccc(Cl)cc1)N1CCc2nc(-c3ccc(F)cc3)ncc2C1` came in with an RP-LC retention time of 1150 s. The compound `COc1ccccc1CNC(=O)c1nnc(-c2ccc(S(=O)(=O)N3CCCC3)cc2)o1` yielded an RP-LC retention time of 906 s.
